Data from paper PMC11232385, “Selective depletion of HBV-infected hepatocytes by class A capsid assembly modulators requires high levels of intrahepatic HBV core protein” (Antimicrobial Agents and Chemotherapy, 2024).
Read-outs that look alike come from different tables or passages of the source.

Columns and labels:
AAV-HBV (HBV genotype D) = assay: Efficacy study in the AAV-HBV mouse model; type: in vivo, C57BL/6 mice; conditions: for serum ALT: during 56 days of treatment; for serum HBV DNA reduction / reduction of HBc-positive cells in the liver / HBeAg reduction / HBsAg reduction: end of treatment (day 56); for serum HBV DNA reduction: oral QD; for reduction of HBc-positive cells in the liver: immunofluorescence; for HBeAg reduction / HBsAg reduction: relative to vehicle
Protocol: Recombinant AAV (serotype 8) carrying the 1.3 copy HBV genome (genotype D; serotype ayw) and empty AAV were provided by Beijing FivePlus Molecular Medicine Institute (Beijing, China). C57BL/6 mice were provided by Shanghai Lingchang Bio Tech Co. Ltd (Shanghai, China). Studies were conducted by Covance Pharmaceutical R&D (Shanghai, China). All procedures implemented during the studies followed local animal welfare legislation, Covance global policies and procedures, and the Guide for the Care and Use of Laboratory Animals.
C57BL/6 mice (male; 4–5 weeks of age) were injected with 200 µL PBS containing 1 × 10^11 vge recombinant virus per mouse through the tail vein. Twenty-eight days after AAV-HBV injection, the mice were bled retro-orbitally to monitor HBsAg and HBV genomic DNA in serum. Based on the HBsAg, HBeAg, and HBV DNA levels and body weight, AAV-HBV-infected mice were selected and randomized into groups (six animals per group) for compound and/or siRNA treatment. […] LNP empty and LNP siRNA 3 mg/kg were injected intravenously at 4 mL/kg on dosing days 0, 14, 28, 42, and 56. […] Serum HBsAg, HBeAg, and HBV DNA were measured twice weekly. ALT was measured once weekly throughout the study. Serum HBsAg and HBeAg were determined by […] i2000 (Abbott Laboratories, Lake Bluff, IL, USA). Serum HBV-DNA was analyzed by ABI7500 (Applied Biosystems, Foster City, CA, USA) and a detection kit (Sansure Biotech Inc., Changsha, Hunan, China). Serum ALT was determined using Roche Cobas 6000 Chemistry Analyzer (Roche Diagnostics, Mannheim, Germany) and supporting reagents.
(§1) Dewaxing and unmasking of antigens were performed on a Bond RX autostainer (Leica Biosystem), and subsequent assay modified for a single round of staining was performed using the Opal technology workflow (Akoya Biosciences), as described previously ([39]).

HBV genotype C = type: in vivo, uPA-SCID mice; conditions: uPA-SCID mouse; for mean decrease of serum HBV DNA: compared to the vehicle, 84 days oral QD; for HBsAg decline: day 84 vs day 0
Protocol: General health observations including weight were monitored weekly. All animal protocols were performed in accordance with the Guide for the Care and Use of Laboratory Animals and approved by the Animal Welfare Committee of Phoenix Bio Co., Ltd. All mice were housed individually and maintained in accordance with the Animal Ethics Committee of PhoenixBio (resolution #2214).
HBV-infected mice were randomized into four different treatment groups based on body weight, blood human albumin (h-Alb), and serum HBV DNA concentrations. All mice had blood h-Alb levels above 12 mg/mL and serum HBV DNA levels above 6.8 × 10^8 copies/mL. […] Mice were followed for an additional 28 days following cessation of treatment at day 84. Mouse serum was monitored weekly for serum HBV DNA and HBV antigens and biweekly for human (h) ALT1. Serum HBsAg and HBeAg concentrations were determined by SRL, Inc. (Tokyo, Japan) based on Chemiluminescent Enzyme Immuno Assay. HBV DNA concentration was performed using the TaqMan Fast Advanced Master Mix (Applied Biosystems, Thermo Fisher Scientific Inc.) and Applied Biosystems 7500 Real-Time PCR System (Applied Biosystems). Serum h-ALT1 concentration was determined by the Institute of Immunology Co., Ltd. (Tokyo, Japan) based on Enzyme-Linked ImmunoSorbent Assay.
as §1

HBV genotype D = assay: Antiviral activity in HBV-infected PHH, drugs added day 3 post infection, 6 days of treatment; type: cell-based, Hepatitis B virus
Protocol: (§2) Cryopreserved PHHs isolated from multiple donors were purchased from Thermo Fisher Scientific (Waltham, MA), Bioreclamation IVT (Hicksville, NY), or Lonza (USA). PHH culturing conditions as previously described ([11]). Approximately 24 h after plating, PHH was infected with HepAD38-derived HBV virions ([36]) (genotype D virus) at 500 viral genome equivalents per cell in a maintenance medium supplemented with 4% PEG 8000 (Promega, Madison, WI; V3011). The infection was allowed to proceed for 20–24 h before removing remaining extracellular virions by washing with a maintenance medium three times.
Extracellular HBsAg and HBeAg were detected in culture media by an electrochemiluminescence assay (Meso Scale Discovery [MSD]) as previously described ([37]).
Extracellular HBV DNA from PHH supernatants was purified using the Qiagen DNeasy 96 kit (69582) following the protocol recommended by the manufacturer. Quantification of HBV DNA by qPCR amplification of the HBV X region of the genome was performed as previously reported ([11]).
(§3) Antiviral activity or cytotoxicity of each test compound was determined from, extracellular HBV DNA, HBeAg, HBsAg, and alamarBlue data by comparing compound-treated PHH to DMSO-treated PHH to generate a percent of DMSO control value (% DMSO control). The % DMSO control was calculated by the following equation: % DMSO Control = 100× (XC/XD) where XC is the signal from the compound-treated PHH, and XD is the signal from the DMSO-treated PHH. The percentage of DMSO control for HBV DNA, HBeAg, HBsAg, and alamarBlue was plotted vs the log of each compound concentration in GraphPad Prism (version 6; GraphPad Software, La Jolla, CA) to generate dose-response curves. […] Error bars represent SD. Statistical analyses were performed by two-way analysis of variance (ANOVA) and Pearson’s correlation tests.

PHH = assay: Cytotoxicity (alamarBlue) in HBV-infected PHH, 6 days of treatment; type: cell-based, human
Protocol: as §2, §3

[1] = AAV-HBV mouse, 100 mg-eq/kg oral QD
[2] = uPA-SCID mouse, 100 mg-eq/kg oral QD
HBV cccDNA = conditions: cited from earlier work
HBV [3] = tested on: HBV; set-up: method as in doi:10.1016/S0168-8278(20)32197-8; conditions: cited from earlier work
HBV [4] = tested on: HBV; set-up: method as in doi:10.1016/S0168-8278(22)00964-3, doi:10.1016/S0168-8278(22)02029-3; conditions: treatment-naïve and NA-suppressed patients, with an NA; cited from earlier work

| SMILES | serum ALT (AAV-HBV (HBV genotype D)) | serum HBV DNA reduction (AAV-HBV (HBV genotype D)) [log10] | reduction of HBc-positive cells in the liver (AAV-HBV (HBV genotype D)) | HBeAg reduction (AAV-HBV (HBV genotype D)) | HBsAg reduction (AAV-HBV (HBV genotype D)) | mean decrease of serum HBV DNA (HBV genotype C) [log10] | HBsAg decline (HBV genotype C) [log10] | other results |
| --- | --- | --- | --- | --- | --- | --- | --- | --- |
| CC(C)OC(=O)[C@H](C)N[P@](=O)(CO[C@H](C)Cn1cnc2c(N)ncnc21)Oc1ccccc1 [TAF, tenofovir alafenamide] | no changes | 2.5 | no change | no changes | no changes | 3.6 | 0.35 |  |
| CNC(=O)C1(NC(=O)C(=O)c2c(C)c(C(=O)Nc3ccc(F)c(F)c3)n3c2CCC3)CC(F)(F)C1 [GS-SBA-1P] | no changes | 3.7 | minimal reduction | no changes | no changes | 5.0 | 0.4 | EC50 (HBV genotype D; extracellular HBV DNA, mean ± SD, read-out: Viral DNA EC50): 0.012 ± 0.0012 µM; EC50 (HBV genotype D; read-out: HBeAg EC50): > 2 µM; EC50 (HBV genotype D; read-out: HBsAg EC50): > 2 µM; CC50 (PHH): > 2 µM; reduction of HBc-positive cells in the liver (HBV genotype C; immunofluorescence, compared to vehicle or TAF-treated animals): 30%; plasma and liver concentrations over the paEC50 [1]: approximately 76 fold; plasma exposures over the mouse plasma-adjusted EC50 of HBV DNA production [2]: greater than 76 fold; concentration blocking cccDNA establishment over the HBV DNA plasma-adjusted EC50 (HBV cccDNA): six-fold |
| CCOC(=O)C1=C(CN2CCOCC2)NC(c2nccs2)=NC1c1ccc(F)cc1Br (stereo not shown) [GLS4] |  |  |  |  |  |  |  | HBsAg reduction (HBV [3]; treatment-naïve HBeAg-positive patients): 0.4 log10 IU/mL; HBsAg effect (HBV [3]; virally suppressed patients): no effect |
| CCOC(=O)C1=C(CN2CCN3C(=O)N(CC(C)(C)C(=O)O)C[C@@H]3C2)N=C(c2nccs2)N[C@H]1c1cccc(F)c1C [RG7907] |  |  |  |  |  |  |  | HBsAg reduction (HBV [4]): no significant reduction of HBsAg |
